# Source: publication PMC13266999, “Designing Antibiotics with Inherent Resistance to Efflux as a Strategy to Revive Discovery against Multidrug-Resistant Pathogens” (Journal of Medicinal Chemistry, 2026)
# Where “and” joins values, the source holds several entries; their conditions need not be identical. Equal entries are not always repeated. Where two headings read alike, the source gives them in different places.
# How the values were obtained:
# [1] = Plasma protein binding (RED); assay type: in vitro ADME; conditions: pH 7.4
# Description: Plasma protein binding was measured using a Rapid Equilibrium Dialysis (RED) assay. Test compounds and control compounds were added to plasma at 10 μM and dialyzed against phosphate-buffered saline (PBS, pH 7.4) for 4 h at 37 °C. […] The percentage of drug bound to plasma proteins was calculated by comparing the analyte response in the plasma compartment with that in the buffer compartment.
# [2] = tested on: Acinetobacter baumannii; experiment: MIC (microbroth dilution); assay type: cell-based
# Description: All bacteria were maintained on tryptic soy agar (TSA), except Streptococcus spp., which were maintained on Columbia agar plates containing 5% horse blood. All bacterial assays were carried out in tryptic soy broth (TSB), except for Streptococcus spp. which were grown in cation-adjusted Mueller Hinton broth containing 2.5% lysed horse blood. Bacteria were grown to stationary phase in liquid culture overnight, with shaking at 200 rpm, before being back diluted to the relevant starting concentration for each assay below. MICs were measured by the microbroth dilution method. […] Absorbance at OD600 was read on a CLARIOstar spectrophotometer (BMG Labtech) and the MIC was defined as the minimum concentration of compound where no visible growth was detected. The compounds were prepared as a DMSO stock and equivalent concentrations of DMSO had no effect on bacterial growth. MICs were also performed in the presence of the outer membrane permeator, polymyxin b nonapeptide (PMBN) following the same MIC method but with the following variation. The 2-fold dilution series of compound was prepared as above, then 50 μL of PMBN at a final concentration of 30 μg/mL was added to relevant wells, while 50 μL/well of blank media was added to the remaining wells. Bacteria were then added at 50 μL/well for a starting concentration as above. Thirty μg/mL of PMBN had no effect on bacterial growth. The MICs were read and defined as above. All animal procedures were performed by the contract research organization Pharmacology Discovery Services Taiwan in accordance with the Guide for the Care and Use of Laboratory Animals. The procedures were approved by the Institutional Ethics Committee of Pharmacology Discovery Services Taiwan, Ltd. (approval no. AB127662), in compliance with animal welfare legislation in Taiwan.
# [3] = molecular target: T1, GR (h) (Homo sapiens, UniProt P04150); experiment: SafetyScreen44; conditions: agonist radioligand, specific binding, 1.0E-05 M
# T1 construct: purchased Eurofins (SafetyScreen44)
# Description: (§1) Off-target pharmacology was evaluated using the Eurofins SafetyScreen44 in vitro panel. […] Binding assays were performed using radioligand displacement, and enzyme or uptake assays measured inhibition of control activity using validated detection methods (scintillation counting, fluorimetry or photometry). Responses were expressed as percent inhibition of control binding or activity. Based on Eurofins interpretation guidelines, effects ≥50% were considered significant, effects between 25% and 50% weak to moderate, and effects <25% were not considered biologically relevant.
# [4] = molecular target: T2, 5-HT1A (h) (Homo sapiens, UniProt P08908); experiment: SafetyScreen44; conditions: agonist radioligand, specific binding, 1.0E-05 M
# T2 construct: purchased Eurofins (SafetyScreen44)
# T2 sequence (P08908 whole entry): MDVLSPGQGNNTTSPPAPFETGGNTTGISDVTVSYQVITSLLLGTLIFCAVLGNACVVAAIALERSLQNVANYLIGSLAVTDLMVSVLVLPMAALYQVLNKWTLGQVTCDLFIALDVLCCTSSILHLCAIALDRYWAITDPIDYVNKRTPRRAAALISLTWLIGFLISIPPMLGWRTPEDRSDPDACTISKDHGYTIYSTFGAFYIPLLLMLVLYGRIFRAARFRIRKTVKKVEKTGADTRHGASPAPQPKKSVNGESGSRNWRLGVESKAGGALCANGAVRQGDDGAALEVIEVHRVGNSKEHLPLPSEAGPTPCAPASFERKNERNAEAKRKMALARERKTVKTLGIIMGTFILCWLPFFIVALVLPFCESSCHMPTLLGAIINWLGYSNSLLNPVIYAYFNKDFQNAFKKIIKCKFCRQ
# Description: as §1
# [5] = molecular target: T3, D2S (h) (Homo sapiens, UniProt P14416); experiment: SafetyScreen44; conditions: agonist radioligand, specific binding, 1.0E-05 M
# T3 construct: purchased Eurofins (SafetyScreen44)
# Description: as §1
# [6] = molecular target: T4, 5-HT2B (h) (Homo sapiens, UniProt P41595); experiment: SafetyScreen44; conditions: agonist radioligand, specific binding, 1.0E-05 M
# T4 construct: purchased Eurofins (SafetyScreen44)
# T4 sequence (P41595 whole entry): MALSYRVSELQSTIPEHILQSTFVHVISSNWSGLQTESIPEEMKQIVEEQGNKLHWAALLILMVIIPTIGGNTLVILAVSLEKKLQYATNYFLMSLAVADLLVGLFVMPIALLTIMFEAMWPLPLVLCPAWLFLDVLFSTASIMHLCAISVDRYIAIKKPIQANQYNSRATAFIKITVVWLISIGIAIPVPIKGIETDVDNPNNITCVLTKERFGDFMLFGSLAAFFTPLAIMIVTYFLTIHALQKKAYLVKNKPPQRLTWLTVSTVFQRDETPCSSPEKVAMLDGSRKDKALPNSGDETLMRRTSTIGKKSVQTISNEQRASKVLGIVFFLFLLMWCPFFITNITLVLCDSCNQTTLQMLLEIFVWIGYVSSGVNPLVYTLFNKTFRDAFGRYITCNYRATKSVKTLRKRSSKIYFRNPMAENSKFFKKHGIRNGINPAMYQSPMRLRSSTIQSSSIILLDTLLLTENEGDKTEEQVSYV
# Description: as §1
# [7] = molecular target: T5, CB2 (h) (Homo sapiens, UniProt P34972); experiment: SafetyScreen44; conditions: agonist radioligand, specific binding, 1.0E-05 M
# T5 construct: purchased Eurofins (SafetyScreen44)
# T5 sequence (P34972 whole entry): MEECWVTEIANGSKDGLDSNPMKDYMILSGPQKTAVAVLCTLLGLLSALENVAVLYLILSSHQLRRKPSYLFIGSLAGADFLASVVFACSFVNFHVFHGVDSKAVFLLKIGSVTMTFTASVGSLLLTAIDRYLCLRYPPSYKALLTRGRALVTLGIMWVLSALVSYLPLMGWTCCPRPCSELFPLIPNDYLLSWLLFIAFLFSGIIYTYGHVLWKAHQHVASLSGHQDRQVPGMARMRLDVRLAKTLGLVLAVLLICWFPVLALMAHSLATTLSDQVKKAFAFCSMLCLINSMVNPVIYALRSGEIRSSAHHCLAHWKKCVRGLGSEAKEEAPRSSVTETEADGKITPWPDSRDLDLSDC
# Description: as §1
# [8] = molecular target: T6, H1 (h) (Homo sapiens, UniProt P35367); experiment: SafetyScreen44; conditions: antagonist radioligand, specific binding, 1.0E-05 M
# T6 construct: purchased Eurofins (SafetyScreen44)
# T6 sequence (P35367 whole entry): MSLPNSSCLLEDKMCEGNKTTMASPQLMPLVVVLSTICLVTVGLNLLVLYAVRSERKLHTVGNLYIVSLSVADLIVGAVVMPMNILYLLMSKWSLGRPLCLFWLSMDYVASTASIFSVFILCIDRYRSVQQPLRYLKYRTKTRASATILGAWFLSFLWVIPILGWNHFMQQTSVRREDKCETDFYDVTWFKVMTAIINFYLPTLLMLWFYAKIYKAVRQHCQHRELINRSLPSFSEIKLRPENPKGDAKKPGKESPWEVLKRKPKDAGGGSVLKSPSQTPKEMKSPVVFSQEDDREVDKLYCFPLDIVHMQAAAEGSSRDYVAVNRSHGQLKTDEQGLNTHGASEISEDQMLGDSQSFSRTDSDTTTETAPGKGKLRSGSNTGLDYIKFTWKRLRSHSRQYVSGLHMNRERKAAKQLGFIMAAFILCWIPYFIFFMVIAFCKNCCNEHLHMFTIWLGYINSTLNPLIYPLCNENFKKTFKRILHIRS
# Description: as §1
# [9] = molecular target: T7, 5-HT2A (h) (Homo sapiens, UniProt P28223); experiment: SafetyScreen44; conditions: agonist radioligand, specific binding, 1.0E-05 M
# T7 construct: purchased Eurofins (SafetyScreen44)
# Description: as §1
# [10] = molecular target: T8, alpha 1A (h) (Homo sapiens, UniProt P35348); experiment: SafetyScreen44; conditions: antagonist radioligand, specific binding, 1.0E-05 M
# T8 construct: purchased Eurofins (SafetyScreen44)
# Description: as §1
# [11] = molecular target: T9, D1 (h) (Homo sapiens, UniProt P21728); experiment: SafetyScreen44; conditions: antagonist radioligand, specific binding, 1.0E-05 M
# T9 construct: purchased Eurofins (SafetyScreen44)
# T9 sequence (P21728 whole entry): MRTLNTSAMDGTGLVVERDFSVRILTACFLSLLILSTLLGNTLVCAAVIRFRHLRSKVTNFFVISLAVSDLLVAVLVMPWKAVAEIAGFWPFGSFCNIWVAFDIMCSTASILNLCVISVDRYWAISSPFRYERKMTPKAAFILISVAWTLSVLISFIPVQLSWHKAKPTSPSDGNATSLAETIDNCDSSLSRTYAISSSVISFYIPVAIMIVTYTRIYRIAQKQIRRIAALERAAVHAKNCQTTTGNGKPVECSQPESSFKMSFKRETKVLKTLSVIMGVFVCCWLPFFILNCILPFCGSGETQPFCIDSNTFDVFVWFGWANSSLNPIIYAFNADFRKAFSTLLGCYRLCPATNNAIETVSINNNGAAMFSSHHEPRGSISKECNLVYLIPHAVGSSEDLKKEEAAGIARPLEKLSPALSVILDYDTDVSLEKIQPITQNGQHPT
# Description: as §1
# [12] = molecular target: T10, M1 (h) (Homo sapiens, UniProt P11229); experiment: SafetyScreen44; conditions: antagonist radioligand, specific binding, 1.0E-05 M
# T10 construct: purchased Eurofins (SafetyScreen44)
# Description: as §1
# [13] = molecular target: T11, M3 (h) (Homo sapiens, UniProt P20309); experiment: SafetyScreen44; conditions: antagonist radioligand, specific binding, 1.0E-05 M
# T11 construct: purchased Eurofins (SafetyScreen44)
# Description: as §1
# [14] = molecular target: T12, delta (DOP) (h) (Homo sapiens, UniProt P41143); experiment: SafetyScreen44; conditions: agonist radioligand, specific binding, 1.0E-05 M
# T12 construct: purchased Eurofins (SafetyScreen44)
# Description: as §1
# [15] = tested on: Ca2+ channel (L, dihydropyridine site); experiment: SafetyScreen44; conditions: antagonist radioligand, specific binding, 1.0E-05 M
# Description: as §1
# [16] = molecular target: T13, mu (MOP) (h) (Homo sapiens, UniProt P35372); experiment: SafetyScreen44; conditions: agonist radioligand, specific binding, 1.0E-05 M
# T13 construct: purchased Eurofins (SafetyScreen44)
# T13 sequence (P35372 whole entry): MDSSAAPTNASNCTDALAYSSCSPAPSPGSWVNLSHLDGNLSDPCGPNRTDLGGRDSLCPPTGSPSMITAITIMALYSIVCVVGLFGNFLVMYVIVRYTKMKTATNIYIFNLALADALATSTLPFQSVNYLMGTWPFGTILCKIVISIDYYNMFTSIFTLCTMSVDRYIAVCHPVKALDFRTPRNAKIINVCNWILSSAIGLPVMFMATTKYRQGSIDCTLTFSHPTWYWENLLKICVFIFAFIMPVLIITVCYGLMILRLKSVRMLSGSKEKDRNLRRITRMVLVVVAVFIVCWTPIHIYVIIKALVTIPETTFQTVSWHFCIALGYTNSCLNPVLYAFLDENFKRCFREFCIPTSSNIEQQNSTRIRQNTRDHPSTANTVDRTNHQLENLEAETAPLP
# Description: as §1
# [17] = tested on: BZD (central); experiment: SafetyScreen44; conditions: agonist radioligand, specific binding, 1.0E-05 M
# Description: as §1
# [18] = molecular target: T14, A2A (h) (Homo sapiens, UniProt P29274); experiment: SafetyScreen44; conditions: agonist radioligand, specific binding, 1.0E-05 M
# T14 construct: purchased Eurofins (SafetyScreen44)
# T14 sequence (P29274 whole entry): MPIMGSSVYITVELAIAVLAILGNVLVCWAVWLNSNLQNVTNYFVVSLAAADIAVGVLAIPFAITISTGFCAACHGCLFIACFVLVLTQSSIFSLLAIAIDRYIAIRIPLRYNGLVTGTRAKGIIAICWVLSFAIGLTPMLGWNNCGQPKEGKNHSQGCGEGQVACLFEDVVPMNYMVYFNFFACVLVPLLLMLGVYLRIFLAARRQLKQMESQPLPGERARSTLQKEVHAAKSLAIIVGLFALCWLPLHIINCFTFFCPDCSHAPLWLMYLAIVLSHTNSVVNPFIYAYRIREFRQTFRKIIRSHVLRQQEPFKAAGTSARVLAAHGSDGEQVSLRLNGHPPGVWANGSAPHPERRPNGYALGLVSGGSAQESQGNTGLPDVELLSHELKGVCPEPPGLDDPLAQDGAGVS
# Description: as §1
# [19] = molecular target: T15, N neuronal alpha 4beta 2 (h) (Homo sapiens, UniProt P17787+P43681); experiment: SafetyScreen44; conditions: agonist radioligand, specific binding, 1.0E-05 M
# T15 construct: purchased Eurofins (SafetyScreen44)
# T15 sequence (P43681 29-627 limits assumed): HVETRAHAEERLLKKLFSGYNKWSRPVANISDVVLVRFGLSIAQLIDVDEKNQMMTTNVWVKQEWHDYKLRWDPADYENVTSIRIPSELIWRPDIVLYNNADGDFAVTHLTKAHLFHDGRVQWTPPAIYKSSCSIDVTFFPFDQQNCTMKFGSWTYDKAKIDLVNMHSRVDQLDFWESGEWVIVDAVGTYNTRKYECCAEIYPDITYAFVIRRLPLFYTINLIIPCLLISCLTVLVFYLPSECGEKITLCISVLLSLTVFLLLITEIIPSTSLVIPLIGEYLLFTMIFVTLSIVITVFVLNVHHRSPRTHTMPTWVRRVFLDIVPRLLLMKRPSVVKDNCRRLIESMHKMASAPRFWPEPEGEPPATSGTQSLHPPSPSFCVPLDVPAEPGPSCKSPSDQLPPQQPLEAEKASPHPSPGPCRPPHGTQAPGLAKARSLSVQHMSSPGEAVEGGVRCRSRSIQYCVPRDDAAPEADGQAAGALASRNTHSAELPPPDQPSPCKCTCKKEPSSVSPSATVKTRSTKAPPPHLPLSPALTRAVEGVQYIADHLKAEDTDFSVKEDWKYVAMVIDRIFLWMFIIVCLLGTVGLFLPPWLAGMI
# T15 sequence (P17787 26-502): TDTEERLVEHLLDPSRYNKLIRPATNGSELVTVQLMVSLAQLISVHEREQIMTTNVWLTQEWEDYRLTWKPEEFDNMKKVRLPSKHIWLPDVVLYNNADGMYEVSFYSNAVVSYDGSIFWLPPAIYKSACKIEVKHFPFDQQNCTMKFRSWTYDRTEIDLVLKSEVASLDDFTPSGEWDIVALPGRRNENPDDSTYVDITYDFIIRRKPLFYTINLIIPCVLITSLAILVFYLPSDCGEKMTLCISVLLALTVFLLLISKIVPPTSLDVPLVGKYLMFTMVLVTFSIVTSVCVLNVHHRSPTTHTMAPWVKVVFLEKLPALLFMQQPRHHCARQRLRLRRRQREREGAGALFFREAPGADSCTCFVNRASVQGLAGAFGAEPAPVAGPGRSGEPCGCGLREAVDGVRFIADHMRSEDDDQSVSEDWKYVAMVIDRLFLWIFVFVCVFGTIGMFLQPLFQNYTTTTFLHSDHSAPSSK
# Description: as §1
# [20] = molecular target: T16, CCK1 (CCKA) (h) (Homo sapiens, UniProt P32238); experiment: SafetyScreen44; conditions: agonist radioligand, specific binding, 1.0E-05 M
# T16 construct: purchased Eurofins (SafetyScreen44)
# T16 sequence (P32238 whole entry): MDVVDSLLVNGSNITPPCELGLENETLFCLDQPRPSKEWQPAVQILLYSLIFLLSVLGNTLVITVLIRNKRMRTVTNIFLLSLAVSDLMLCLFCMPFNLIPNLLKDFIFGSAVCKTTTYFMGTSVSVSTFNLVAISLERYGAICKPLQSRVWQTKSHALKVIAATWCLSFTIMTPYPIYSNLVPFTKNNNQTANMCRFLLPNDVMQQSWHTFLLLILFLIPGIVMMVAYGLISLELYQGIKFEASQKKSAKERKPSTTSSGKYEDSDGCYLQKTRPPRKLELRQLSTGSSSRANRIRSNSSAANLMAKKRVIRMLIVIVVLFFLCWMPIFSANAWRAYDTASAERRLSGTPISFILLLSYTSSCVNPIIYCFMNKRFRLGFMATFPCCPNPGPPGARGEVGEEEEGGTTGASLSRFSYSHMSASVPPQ
# Description: as §1
# [21] = tested on: NMDA; experiment: SafetyScreen44; conditions: antagonist radioligand, specific binding, 1.0E-05 M
# Description: as §1
# [22] = molecular target: T17, kappa (KOP) (Rattus norvegicus, UniProt P34975); experiment: SafetyScreen44; conditions: agonist radioligand, specific binding, 1.0E-05 M
# T17 construct: purchased Eurofins (SafetyScreen44)
# T17 sequence (P34975 whole entry): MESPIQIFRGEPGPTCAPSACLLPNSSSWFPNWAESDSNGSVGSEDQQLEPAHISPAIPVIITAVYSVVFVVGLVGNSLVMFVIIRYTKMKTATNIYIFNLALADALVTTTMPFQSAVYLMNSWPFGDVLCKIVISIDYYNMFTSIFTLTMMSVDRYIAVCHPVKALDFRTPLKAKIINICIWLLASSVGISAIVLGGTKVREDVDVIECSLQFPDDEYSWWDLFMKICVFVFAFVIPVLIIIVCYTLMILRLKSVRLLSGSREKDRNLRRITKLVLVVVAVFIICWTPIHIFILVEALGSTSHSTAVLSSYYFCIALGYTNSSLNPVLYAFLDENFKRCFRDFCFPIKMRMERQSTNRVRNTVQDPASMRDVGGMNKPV
# Description: as §1
# [23] = molecular target: T18, norepinephrine transporter (h) (Homo sapiens, UniProt P23975); experiment: SafetyScreen44; conditions: antagonist radioligand, specific binding, 1.0E-05 M
# T18 construct: purchased Eurofins (SafetyScreen44)
# Description: as §1
# [24] = tested on: Na+ channel (site 2); experiment: SafetyScreen44; conditions: antagonist radioligand, specific binding, 1.0E-05 M
# Description: as §1
smiles,measurement,setting,value
"C[C@H]1COc2c(N3CC[C@@H](Nc4ncccn4)C3)c(F)cc3c(=O)c(C(=O)O)cn1c23 [Compound 46, (S)-9-Fluoro-3-methyl-7-oxo-10-((R)-3-(pyrimidin-2-ylamino)pyrrolidin-1-yl)-2,3-dihydro-7H-[1,4]oxazino[2,3,4-ij]quinoline-6-carboxylic acid]","fraction unbound at 4 h, 10 μM",[1],0.42
same,MIC,"[2]; Acinetobacter baumannii, 86, oxa23, read-out: MIC",8 µg/mL
same,MIC,"[2]; Acinetobacter baumannii, 96, oxa23, read-out: MIC",4 µg/mL
same,MIC,"[2]; Acinetobacter baumannii, 113, oxa23, read-out: MIC",4 µg/mL
same,MIC,"[2]; Acinetobacter baumannii, A118, read-out: MIC",≤ 0.06 µg/mL
same,MIC,"[2]; Acinetobacter baumannii, A318, read-out: MIC",8 µg/mL
same,MIC,"[2]; Acinetobacter baumannii, A319, read-out: MIC",8 µg/mL
same,MIC,"[2]; Acinetobacter baumannii, A600 colR, read-out: MIC",4 µg/mL
same,MIC,"[2]; Acinetobacter baumannii, A601 colS, read-out: MIC",≤ 0.06 µg/mL
same,MIC,"[2]; Acinetobacter baumannii, AB01335 adeG183::T26",4 µg/mL
same,MIC,"[2]; Acinetobacter baumannii, AB5075-UW, read-out: MIC",4 µg/mL
same,MIC,"[2]; Acinetobacter baumannii, AB05215 adeS132::T26",4 µg/mL
same,MIC,"[2]; Acinetobacter baumannii, AB05218 adeS141::T26",4 µg/mL
same,MIC,"[2]; Acinetobacter baumannii, AB05219 adeR103::T26",4 µg/mL
same,MIC,"[2]; Acinetobacter baumannii, AB05222 adeR160::T101",4 µg/mL
same,MIC,"[2]; Acinetobacter baumannii, AB05226 adeA165::T26",4 µg/mL
same,MIC,"[2]; Acinetobacter baumannii, AB05227 adeA138::T26",2 µg/mL
same,MIC,"[2]; Acinetobacter baumannii, AB05228 adeB150::T26",1 µg/mL
same,MIC,"[2]; Acinetobacter baumannii, AB05230 adeB181::T26",1 µg/mL
same,MIC,"[2]; Acinetobacter baumannii, ATCC17978, ATCC 17978, read-out: MIC",≤ 0.25 µg/mL
same,MIC,"[2]; Acinetobacter baumannii, BAA1709, BAA-1709, read-out: MIC",0.125 µg/mL
same,MIC,"[2]; Acinetobacter baumannii, BAA1710, BAA-1710 (AYE), read-out: MIC",4 µg/mL
same,MIC,"[2]; Acinetobacter baumannii, BAA2093, BAA-2093, read-out: MIC",0.03 to 0.06 µg/mL
same,MIC,"[2]; Acinetobacter baumannii, NCTC10303, NCTC 10303, read-out: MIC",≤ 0.06 µg/mL
same,MIC,"[2]; Acinetobacter baumannii, NCTC12156, NCTC 12156, read-out: MIC",0.125 µg/mL
same,MIC,"[2]; Acinetobacter baumannii, NCTC13302, NCTC 13302, oxa24, read-out: MIC",4 µg/mL
same,MIC,"[2]; Acinetobacter baumannii, NCTC13424, NCTC 13424, oxa23, read-out: MIC",> 64 µg/mL
same,MIC,"[2]; Acinetobacter baumannii, T strain, read-out: MIC",8 µg/mL
same,MIC,"[2]; Acinetobacter baumannii, UKA1, oxa23, read-out: MIC",4 µg/mL
same,MIC,"[2]; Acinetobacter baumannii, UKA2, Low resistance, read-out: MIC",8 µg/mL
same,MIC,"[2]; Acinetobacter baumannii, UKA9, read-out: MIC",≤ 0.06 µg/mL
same,MIC,"[2]; Acinetobacter baumannii, UKA12, oxa23, read-out: MIC",2 µg/mL
same,MIC,"[2]; Acinetobacter baumannii, UKA13, oxa23, read-out: MIC",2 µg/mL
same,MIC,"[2]; Acinetobacter baumannii, UKA15, oxa23, read-out: MIC",1 µg/mL
same,MIC,"[2]; Acinetobacter baumannii, UKA19, read-out: MIC",0.25 µg/mL
same,MIC,"[2]; Acinetobacter baumannii, W1, read-out: MIC",4 µg/mL
same,% Inhibition,[3],3.456%
same,% Inhibition,[4],-3.77%
same,inhibition at 10 µM,[5],-7.81%
same,% Inhibition,[6],5.374%
same,% Inhibition,[7],0%
same,% Inhibition,[8],5.564%
same,% Inhibition,[9],-8.881%
same,inhibition at 10 µM,[10],11.5%
same,inhibition at 10 µM,[11],-15.4%
same,% Inhibition,[12],3.129%
same,% Inhibition,[13],2.273%
same,inhibition at 10 µM,[14],2.16%
same,% Inhibition,[15],6.049%
same,% Inhibition,[16],6.535%
same,% Inhibition,[17],-44.8289%
same,% Inhibition,[18],53.628% and 53.6%
same,inhibition at 10 µM,[19],-41.8%
same,% Inhibition,[20],-2.038%
same,% Inhibition,[21],12.6124%
same,% Inhibition,[22],27.3513% and 27.4%
same,% Inhibition,[23],-6.471%
same,% Inhibition,[24],23.6539%
